Drawing on article PMC12624743 (ACS Infectious Diseases, 2025), this text covers MIC for 1 molecule.

The MIC is the least concentration at which growth counts as inhibited.

Test [1] has as its system N. gonorrhoeae FA1090-Q1 (GyrA^S91F/D95G, ParC WT). The test is described as follows: MIC by agar dilution, fluoroquinolone-resistant GyrA^S91F/D95G strain. Format: cell-based. Particulars: Neisseria gonorrhoeae. Here is the method: Minimum inhibitory concentration (MIC) of test compounds was determined by an agar dilution method, the reference testing method for N. gonorrhoeae according to the standards of the Clinical and Laboratory Standards Institute and the CDC.
Background: In agar dilution the substance is mixed into plates at graded concentrations.

Test [2] concerns N. gonorrhoeae FA1090 (ATCC 700825). In words: MIC by agar dilution, parental strain FA1090. Format: cell-based. Particulars: Neisseria gonorrhoeae, ATCC700825, parental strain FA1090, GyrA WT / ParC WT. Here is the method:
A series of isogenic N. gonorrhoeae strains was constructed that carried the specific target mutations GyrA^A92T or GyrA^D90N either alone or in combination with ParC^D86N or GyrA^S91F/D95G in a ciprofloxacin-susceptible strain, FA1090 (ATCC 700825).
All N. gonorrhoeae isolates were cultured and grown on GC agar plates or in fastidious broth (Remel, 07664). Minimum inhibitory concentration (MIC) of test compounds was determined by an agar dilution method, the reference testing method for N. gonorrhoeae according to the standards of the Clinical and Laboratory Standards Institute and the CDC. MIC values were determined after incubation at 37 °C for 48 h in 5% CO2.

Molecules are shown by their SMILES. In brackets after ≈: the same amount, converted by molar mass.

Turning to `O=C(O)c1cn(C2CC2)c2cc(N3CCNCC3)c(F)cc2c1=O` [ciprofloxacin], the results for the MIC in test [1] and in test [2] were 0.25 µg/mL (≈ 0.754 µM) and 0.004 µg/mL, respectively.
